Measurements reported in patent US8785457B2 (Cellzome Limited, priority 2009, dated 2014).

Experiments:
[1] = biological target: T1, PI3 Kbeta (PI3 Kb) (Homo sapiens, UniProt P42338); experiment: kinobeads assay, PI3Kbeta; assay type: binding; settings: kinobeads assay, Table 6; read-out: Inhibition values (IC50) PI3Kb
T1 construct: endogenous in cells; host or cells: cell lysate
How it was run: (§1)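 Competitive pull-down in cell lysate: compound (various conc.) + phenylmorpholin-chromen affinity beads, incubate, separate beads, elute. Multiplexed immunodetection of bound kinases; dose-response fit → IC50.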

[2] = biological target: T2, PI3 Kgamma (PI3 Kg) (Homo sapiens, UniProt P48736); experiment: kinobeads assay, PI3Kgamma; assay type: binding; settings: kinobeads assay, Table 6; read-out: Inhibition values (IC50) PI3Kg
T2 construct: endogenous in cells; host or cells: cell lysate
How it was run: as §1

[3] = test system: S6RP serine-240/244 phosphorylation; experiment: In vitro Phospho-S6 cellular assay (pS6RP S240/244) in HEK293T/17 cells; assay type: cell-based; settings: Homo sapiens, 2 hours, read-out: pS6 IC50
How it was run: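 Compounds were tested at eight concentrations on adhered HEK293T/17 cells for 2 h at 37 °C (2% FCS, 0.1% DMSO), at 80,000 cells/well for pAkt S473 and 40,000 for pS6RP S240/244. Lysates were captured on phospho-specific antibody MSD plates with Sulfo-Tag detection. Values came from nonlinear variable-slope regression.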

T1 sequence (P42338 whole entry): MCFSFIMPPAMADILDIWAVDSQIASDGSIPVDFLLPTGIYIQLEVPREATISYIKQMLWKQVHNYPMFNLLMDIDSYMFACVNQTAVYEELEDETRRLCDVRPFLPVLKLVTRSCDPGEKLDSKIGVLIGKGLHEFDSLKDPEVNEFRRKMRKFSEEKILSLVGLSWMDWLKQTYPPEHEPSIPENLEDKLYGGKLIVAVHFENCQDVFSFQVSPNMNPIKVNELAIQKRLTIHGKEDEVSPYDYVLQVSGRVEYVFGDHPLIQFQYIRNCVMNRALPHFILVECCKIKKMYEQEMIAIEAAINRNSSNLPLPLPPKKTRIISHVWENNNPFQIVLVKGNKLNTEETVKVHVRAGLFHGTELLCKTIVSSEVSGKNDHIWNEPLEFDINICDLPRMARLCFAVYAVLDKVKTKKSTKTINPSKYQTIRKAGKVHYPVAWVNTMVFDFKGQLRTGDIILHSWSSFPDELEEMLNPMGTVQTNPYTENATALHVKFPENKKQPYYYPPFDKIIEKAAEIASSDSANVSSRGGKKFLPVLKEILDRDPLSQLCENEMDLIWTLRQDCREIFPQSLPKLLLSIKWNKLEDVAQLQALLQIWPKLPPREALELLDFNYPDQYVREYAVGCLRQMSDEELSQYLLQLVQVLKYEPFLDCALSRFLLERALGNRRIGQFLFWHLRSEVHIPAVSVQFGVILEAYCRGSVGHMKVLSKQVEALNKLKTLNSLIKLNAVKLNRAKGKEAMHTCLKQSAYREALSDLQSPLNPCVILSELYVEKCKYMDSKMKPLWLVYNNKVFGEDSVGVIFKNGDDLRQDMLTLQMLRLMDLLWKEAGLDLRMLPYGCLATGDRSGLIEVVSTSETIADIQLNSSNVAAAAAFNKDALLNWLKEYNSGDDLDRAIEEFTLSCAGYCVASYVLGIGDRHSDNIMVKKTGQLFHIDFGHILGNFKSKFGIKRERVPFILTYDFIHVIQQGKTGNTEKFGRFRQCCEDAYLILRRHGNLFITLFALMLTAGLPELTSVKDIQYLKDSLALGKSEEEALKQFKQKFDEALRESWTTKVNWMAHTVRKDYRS
T1 sequence (P27986 whole entry partner): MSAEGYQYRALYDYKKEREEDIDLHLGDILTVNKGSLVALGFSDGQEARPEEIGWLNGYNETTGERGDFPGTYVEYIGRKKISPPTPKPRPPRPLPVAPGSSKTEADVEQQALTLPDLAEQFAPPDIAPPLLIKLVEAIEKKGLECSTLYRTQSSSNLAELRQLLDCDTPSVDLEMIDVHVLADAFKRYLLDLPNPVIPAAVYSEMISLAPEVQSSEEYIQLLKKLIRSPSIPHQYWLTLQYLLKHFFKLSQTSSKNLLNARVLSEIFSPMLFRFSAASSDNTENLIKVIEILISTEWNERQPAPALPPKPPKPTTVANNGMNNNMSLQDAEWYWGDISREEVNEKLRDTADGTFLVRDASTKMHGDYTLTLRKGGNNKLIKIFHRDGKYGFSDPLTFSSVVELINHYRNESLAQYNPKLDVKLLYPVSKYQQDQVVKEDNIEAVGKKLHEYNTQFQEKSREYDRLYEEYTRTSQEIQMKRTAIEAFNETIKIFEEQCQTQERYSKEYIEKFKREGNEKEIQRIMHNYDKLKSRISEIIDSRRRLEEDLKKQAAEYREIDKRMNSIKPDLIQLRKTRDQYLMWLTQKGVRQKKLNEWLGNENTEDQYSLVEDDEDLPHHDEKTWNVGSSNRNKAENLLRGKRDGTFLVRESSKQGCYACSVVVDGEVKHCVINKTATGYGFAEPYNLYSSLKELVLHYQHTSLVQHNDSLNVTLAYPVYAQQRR
T2 sequence (P48736 whole entry): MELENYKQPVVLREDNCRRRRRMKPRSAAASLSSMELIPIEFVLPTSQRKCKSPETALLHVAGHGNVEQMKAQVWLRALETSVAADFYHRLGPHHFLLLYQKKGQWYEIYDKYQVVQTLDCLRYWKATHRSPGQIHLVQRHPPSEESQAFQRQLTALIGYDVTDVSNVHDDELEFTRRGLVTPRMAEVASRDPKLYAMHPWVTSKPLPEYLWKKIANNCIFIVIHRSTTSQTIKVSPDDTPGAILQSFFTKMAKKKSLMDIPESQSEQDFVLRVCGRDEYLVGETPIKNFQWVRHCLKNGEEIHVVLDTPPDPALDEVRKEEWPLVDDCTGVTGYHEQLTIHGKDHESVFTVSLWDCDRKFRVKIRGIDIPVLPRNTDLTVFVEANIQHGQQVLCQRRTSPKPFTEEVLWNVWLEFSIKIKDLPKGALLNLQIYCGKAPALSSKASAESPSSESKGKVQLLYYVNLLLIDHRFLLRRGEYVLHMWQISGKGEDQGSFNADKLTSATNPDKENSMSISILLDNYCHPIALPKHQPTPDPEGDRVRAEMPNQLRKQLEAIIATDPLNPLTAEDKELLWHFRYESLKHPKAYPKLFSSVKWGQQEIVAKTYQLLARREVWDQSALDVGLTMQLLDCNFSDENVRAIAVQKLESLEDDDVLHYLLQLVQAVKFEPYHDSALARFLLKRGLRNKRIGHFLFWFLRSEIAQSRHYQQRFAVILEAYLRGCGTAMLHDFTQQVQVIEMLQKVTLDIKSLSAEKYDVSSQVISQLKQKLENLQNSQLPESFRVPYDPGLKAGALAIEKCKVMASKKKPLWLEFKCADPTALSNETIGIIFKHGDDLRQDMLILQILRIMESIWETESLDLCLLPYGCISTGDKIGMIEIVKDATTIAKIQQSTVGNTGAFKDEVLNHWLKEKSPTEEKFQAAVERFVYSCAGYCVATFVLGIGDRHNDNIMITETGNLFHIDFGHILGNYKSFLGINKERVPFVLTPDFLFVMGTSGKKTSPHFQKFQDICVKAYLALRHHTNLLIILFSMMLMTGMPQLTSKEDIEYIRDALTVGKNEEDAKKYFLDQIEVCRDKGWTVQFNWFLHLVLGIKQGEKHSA

SMILES | IC50 [1] [µM] | IC50 [2] [µM] | IC50 [3] [µM]
CCNC(=O)Nc1ccc(-c2nc3c(c(N4CCOC[C@@H]4C)n2)CN(C(C)C)C3)cc1 [Example 74, (S)-1-ethyl-3-(4-(6-isopropyl-4-(3-methylmorpholino)-6,7-dihydro-5H-pyrrolo[3,4-d]pyrimidin-2-yl)phenyl)urea] | > 10 | > 10 | 0.11
CCNC(=O)Nc1ccc(-c2nc3c(c(N4CCOCC4)n2)CN(C(=O)C(C)(C)C)C3)cc1 [Example 100, 1-ethyl-3-(4-(4-morpholino-6-pivaloyl-6,7-dihydro-5H-pyrrolo[3,4-d]pyrimidin-2-yl)phenyl)urea] | > 10 | > 10 | 0.202
CCNC(=O)Nc1ccc(-c2nc3c(c(N4CCOCC4)n2)CCN(C(=O)NCC)C3)cc1 [Example 94, N-ethyl-2-(4-(3-ethylureido)phenyl)-4-morpholino-5,6-dihydropyrido[3,4-d]pyrimidine-7(8H)-carboxamide] | > 10 | > 10 | 0.565
CCNC(=O)Nc1ccc(-c2nc3c(c(N4CCOC[C@@H]4C)n2)CN(C(=O)OCC)CC3)cc1 [Example 107, (S)-ethyl 2-(4-(3-ethylureido)phenyl)-4-(3-methylmorpholino)-7,8-dihydropyrido[4,3-d]pyrimidine-6(5H)-carboxylate] | > 10 | > 10 | 0.159
CCNC(=O)Nc1ccc(-c2nc3c(c(N4CCOCC4)n2)CCN(C(C)=O)C3)cc1 [Example 97, 1-(4-(7-acetyl-4-morpholino-5,6,7,8-tetrahydropyrido[3,4-d]pyrimidin-2-yl)phenyl)-3-ethylurea] | 1 to 10 | > 10 | 0.338
CCNC(=O)Nc1ccc(-c2nc3c(c(N4CCOC[C@@H]4C)n2)CN(CC(F)(F)F)C3)cc1 [Example 68, (S)-1-ethyl-3-(4-(4-(3-methylmorpholino)-6-(2,2,2-trifluoroethyl)-6,7-dihydro-5H-pyrrolo[3,4-d]pyrimidin-2-yl)phenyl)urea] | > 10 | > 10 | 0.243
CCNC(=O)Nc1ccc(-c2nc3c(c(N4CCOC[C@@H]4C)n2)CN(C2CCN(C(=O)OC)CC2)C3)cc1F [Example 122, (S)-methyl 4-(2-(4-(3-ethylureido)-3-fluorophenyl)-4-(3-methylmorpholino)-5H-pyrrolo[3,4-d]pyrimidin-6(7H)-yl)piperidine-1-carboxylate] | > 10 | > 10 | 0.175
CCNC(=O)Nc1cc(F)c(-c2nc3c(c(N4CCOC[C@@H]4C)n2)CCN(C)C3)cc1F [Example 108, (S)-1-(2,5-difluoro-4-(7-methyl-4-(3-methylmorpholino)-5,6,7,8-tetrahydropyrido[3,4-d]pyrimidin-2-yl)phenyl)-3-ethylurea] | > 10 | > 10 | 0.935
Cc1cc(NC(=O)Nc2ccc(-c3nc4c(c(N5CCOC[C@@H]5C)n3)CN(C)C4)cc2)no1 [Example 72, (S)-1-(4-(6-methyl-4-(3-methylmorpholino)-6,7-dihydro-5H-pyrrolo[3,4-d]pyrimidin-2-yl)phenyl)-3-(5-methylisoxazol-3-yl)urea] | > 10 | > 10 | 0.129
CCOC(=O)N1Cc2nc(-c3ccc(NC(=O)Nc4ccncc4)cc3)nc(N3CCOC[C@@H]3C)c2C1 [Example 121, (S)-ethyl 4-(3-methylmorpholino)-2-(4-(3-(pyridin-4-yl)ureido)phenyl)-5H-pyrrolo[3,4-d]pyrimidine-6(7H)-carboxylate] | > 10 | > 10 | 0.033
CCNC(=O)Nc1ccc(-c2nc3c(c(N4CCOC[C@@H]4C)n2)CN(CC(C)(C)C)C3)cc1 [Example 67, (S)-1-ethyl-3-(4-(4-(3-methylmorpholino)-6-neopentyl-6,7-dihydro-5H-pyrrolo[3,4-d]pyrimidin-2-yl)phenyl)urea] | > 10 | > 10 | 0.143
CCNC(=O)Nc1ccc(-c2nc3c(c(N4CCOC[C@@H]4C)n2)CCN(CC(C)C)C3)cc1.O=CO [Example 76, (S)-1-ethyl-3-(4-(7-isobutyl-4-(3-methylmorpholino)-5,6,7,8-tetrahydropyrido[3,4-d]pyrimidin-2-yl)phenyl)urea formate] | > 10 | > 10 | 0.095
CCNC(=O)Nc1ncc(-c2nc3c(c(N4CCOC[C@@H]4C)n2)CCN(C)C3)s1 [Example 106, (S)-1-ethyl-3-(5-(7-methyl-4-(3-methylmorpholino)-5,6,7,8-tetrahydropyrido[3,4-d]pyrimidin-2-yl)thiazol-2-yl)urea] | > 10 | > 10 | 0.294
CCNC(=O)Nc1ccc(-c2nc3c(c(N4CCOC[C@@H]4C)n2)CN(C(=O)OC(C)(C)C)C3)cc1 [Example 1, (S)-tert-butyl 2-(4-(3-ethylureido)phenyl)-4-(3-methylmorpholino)-5H-pyrrolo[3,4-d]pyrimidine-6(7H)-carboxylate] |  |  | 0.052
CCNC(=O)Nc1ccc(-c2nc3c(c(N4CCOCC4)n2)CCN(C)C3)cc1 [Example 93, 1-ethyl-3-(4-(7-methyl-4-morpholino-5,6,7,8-tetrahydropyrido[3,4-d]pyrimidin-2-yl)phenyl)urea] | > 10 | > 10 | 0.196
CCNC(=O)Nc1ccc(-c2nc3c(c(N4CCOCC4)n2)CN(C(=O)OCC)C3)cc1 [Example 70, Ethyl 2-(4-(3-ethylureido)phenyl)-4-morpholino-5H-pyrrolo[3,4-d]pyrimidine-6(7H)-carboxylate] | > 10 | > 10 | 0.133
CCNC(=O)Nc1ccc(-c2nc3c(c(N4CCOCC4)n2)CCN(C(=O)OCC)C3)cc1 [Example 96, ethyl 2-(4-(3-ethylureido)phenyl)-4-morpholino-5,6-dihydropyrido[3,4-d]pyrimidine-7(8H)-carboxylate] | > 10 | > 10 | 0.05
CCNC(=O)Nc1ccc(-c2nc3c(c(N4CCOCC4)n2)CCN(C(=O)C(C)(C)C)C3)cc1 [Example 98, 1-ethyl-3-(4-(4-morpholino-7-pivaloyl-5,6,7,8-tetrahydropyrido[3,4-d]pyrimidin-2-yl)phenyl)urea] | > 10 | > 10 | 0.045
CCOC(=O)N1Cc2nc(-c3ccc(NC(=O)NC4CC4)c(F)c3)nc(N3CCOC[C@@H]3C)c2C1 [Example 105, (S)-ethyl 2-(4-(3-cyclopropylureido)-3-fluorophenyl)-4-(3-methylmorpholino)-5H-pyrrolo[3,4-d]pyrimidine-6(7H)-carboxylate] | > 10 | > 10 | 0.414
C[C@H]1COCCN1c1nc(-c2ccc(NC(=O)NC3CC3)cc2)nc2c1CN(CC(F)(F)F)C2 [Example 101, (S)-1-cyclopropyl-3-(4-(4-(3-methylmorpholino)-6-(2,2,2-trifluoroethyl)-6,7-dihydro-5H-pyrrolo[3,4-d]pyrimidin-2-yl)phenyl)urea] |  |  | 0.252
CCNC(=O)Nc1ccc(-c2nc3c(c(N4CCOC[C@@H]4C)n2)CCN(C(=O)CO)C3)cc1 [Example 102, (S)-1-ethyl-3-(4-(7-(2-hydroxyacetyl)-4-(3-methylmorpholino)-5,6,7,8-tetrahydropyrido[3,4-d]pyrimidin-2-yl)phenyl)urea] | > 10 | > 10 | 0.258
C[C@H]1COCCN1c1nc(-c2ccc(NC(N)=O)cc2)nc2c1CN(C)C2 [Example 71, (S)-1-(4-(6-methyl-4-(3-methylmorpholino)-6,7-dihydro-5H-pyrrolo[3,4-d]pyrimidin-2-yl)phenyl)urea] | 1 to 10 | 1 to 10 | 0.69
C[C@H]1COCCN1c1nc(-c2ccc(NC(=O)Nc3ccn(C)n3)cc2)nc2c1CN(C)C2 [Example 84, (S)-1-(1-methyl-1H-pyrazol-3-yl)-3-(4-(6-methyl-4-(3-methylmorpholino)-6,7-dihydro-5H-pyrrolo[3,4-d]pyrimidin-2-yl)phenyl)urea] | > 10 | > 10 | 0.165
CC(=O)N1CCc2c(nc(-c3ccc(NC(=O)NC4CC4)cc3)nc2N2CCOC[C@@H]2C)C1 [Example 62, (S)-1-(4-(7-acetyl-4-(3-methylmorpholino)-5,6,7,8-tetrahydropyrido[3,4-d]pyrimidin-2-yl)phenyl)-3-cyclopropylurea] | > 10 | > 10 | 0.049
CC(C)CN1Cc2nc(-c3ccc(NC(=O)NC4CC4)cc3)nc(N3CCOC[C@@H]3C)c2C1 [Example 65, (S)-1-cyclopropyl-3-(4-(6-isobutyl-4-(3-methylmorpholino)-6,7-dihydro-5H-pyrrolo[3,4-d]pyrimidin-2-yl)phenyl)urea] | > 10 | > 10 | 0.149
CCNC(=O)Nc1ccc(-c2nc3c(c(N4CCOC[C@@H]4C)n2)CCN(C(C)=O)C3)cc1 [Example 59, (S)-1-(4-(7-acetyl-4-(3-methylmorpholino)-5,6,7,8-tetrahydropyrido[3,4-d]pyrimidin-2-yl)phenyl)-3-ethylurea] |  |  | 0.16
C[C@H]1COCCN1c1nc(-c2ccc(NC(=O)NC3CC3)cc2)nc2c1CN(C(=O)C1CCOCC1)C2 [Example 129, (S)-1-cyclopropyl-3-(4-(4-(3-methylmorpholino)-6-(tetrahydro-2H-pyran-4-carbonyl)-6,7-dihydro-5H-pyrrolo[3,4-d]pyrimidin-2-yl)phenyl)urea] |  | > 10 | 0.336
